These results are taken from patent US11976083B2, “Inhibitors of peptidylarginine deiminases” (Gilead Sciences, Inc., priority 2020, dated 2024).

Structures are written as SMILES.

The target of this experiment is T1, human PAD4 (Homo sapiens, UniProt Q9UM07).
T1 construct: human PAD4 (NM_012387), A2-P663, was PCR amplified; His-SUMO (N, cleaved yes); made in house; host or cells: E. coli BL21(DE3)
As to the kind of experiment: In vitro PAD4 BAEE biochemical assay. Particulars: BAEE substrate 3 mM, 5 nM PAD4, 2 mM calcium chloride; geometric mean of multiple experiments. The essentials:
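Fluorescence read-out (ex 405/em 535 nm) of isoindole formed from ammonia, o-phthalaldehyde and DTT after EDTA stop. Reaction: 5 nM PAD4, 2 mM CaCl2, 3 mM BAEE, 2 h, 25 °C, after 30 min enzyme–compound preincubation. Normalised to BB-Cl-Amidine (50 µM) and DMSO controls.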

T1 sequence (Q9UM07 2-663): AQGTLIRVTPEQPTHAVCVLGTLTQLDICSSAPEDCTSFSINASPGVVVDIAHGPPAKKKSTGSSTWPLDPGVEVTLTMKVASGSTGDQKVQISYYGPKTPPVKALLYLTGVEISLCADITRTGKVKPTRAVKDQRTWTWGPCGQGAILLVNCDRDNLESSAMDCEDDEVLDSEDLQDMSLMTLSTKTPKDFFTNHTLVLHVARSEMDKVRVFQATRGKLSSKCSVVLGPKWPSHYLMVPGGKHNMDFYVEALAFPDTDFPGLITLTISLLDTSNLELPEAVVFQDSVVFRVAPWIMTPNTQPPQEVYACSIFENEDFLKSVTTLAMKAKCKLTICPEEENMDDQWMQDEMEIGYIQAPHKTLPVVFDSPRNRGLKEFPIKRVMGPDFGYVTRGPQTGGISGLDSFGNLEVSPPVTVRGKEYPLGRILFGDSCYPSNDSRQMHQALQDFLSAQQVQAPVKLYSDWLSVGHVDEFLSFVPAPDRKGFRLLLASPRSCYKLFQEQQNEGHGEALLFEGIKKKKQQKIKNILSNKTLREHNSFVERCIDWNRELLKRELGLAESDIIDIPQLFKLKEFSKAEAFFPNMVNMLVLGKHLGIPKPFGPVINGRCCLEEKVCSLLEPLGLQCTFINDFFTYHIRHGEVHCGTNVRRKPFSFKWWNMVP

In the case of `COc1cc(C(=O)N2CC[C@@H](F)[C@@H](N)C2)cc2nc(-c3cc4ccc5nc4n3CCCCCCC(C)(C)C(=O)N[C@@H]5C)n(C)c12` [Example 276, (11~{R})-17-[5-[(3~{S},4~{R})-3-amino-4-fluoro-piperidine-1-carbonyl]-7-methoxy-1-methyl-benzimidazol-2-yl]-8,8,11-trimethyl-1,10,19-triazatricyclo[10.5.2.0^{15,18}]nonadeca-12(19),13,15(18),16-tetraen-9-one], the IC50 turned out to be 343 nM.

Regarding `COc1cc(C(=O)N2CC[C@@H](OC)[C@@H](N)C2)cc2nc(-c3cc4ccc5nc4n3CC(F)(F)CCCC(C)(C)C(=O)N[C@@H]5C)n(C)c12` [Example 587, (10~{R})-16-[5-[(3~{S},4~ {R})-3-amino-4-methoxy-piperidine-1-carbonyl]-7-methoxy-1-methyl-benzimidazol-2-yl]-3,3-difluoro-7,7,10-trimethyl-1,9,18-triazatricyclo[9.5.2.0^ {14,17}]octadeca-11(18),12,14(17), 15-tetraen-8-one], the IC50 turned out to be 163 nM.

Turning to `COc1cc(C(=O)N2C[C@H](N)[C@@H]3CC[C@H]2C3)cc2nc(-c3cc4ccc5nc4n3CCCCCc3nccnc3C(=O)N[C@@H]5C)n(C)c12` [Example 484, (2~{R})-17-[5-[(1~{S},4~{R},5~{R})-4-amino-2-azabicyclo[3.2.1]octane-2-carbonyl]-7-methoxy-1-methyl-benzimidazol-2-yl]-2-methyl-3,6,9,16,22-pentazatetracyclo[14.5.2.0^{5,10}.0^{19, 23}]tricosa-1(22),5(10),6,8,17,19(23),20-heptaen-4-one], the half-inhibitory concentration (IC50) came to 44 nM.

`COc1cc(C(=O)N2CC[C@@H](OC)[C@@H](N)C2)cc2nc(-c3cc4ccc5nc4n3CCCCCc3nc4ccccc4nc3C(=O)N[C@@H]5C)n(C)c12` [Example 414, (2~{R})-21-[5-[(3~{S},4~{R})-3-amino-4-methoxy-piperidine-1-carbonyl]-7-methoxy-1-methyl-benzimidazol-2-yl]-2-methyl-3,6,13,20,26-pentazapentacyclo[18.5.2.0^{5,14).0^{7, 12}.0^{23,27}]heptacosa-1(26),5(14),6,8,10,12,21,23(27),24-nonaen-4-one]: the IC50 stood at 125 nM.

`C[C@H]1NC(=O)c2ccc(Cl)nc2CC[C@@H]2C[C@@H]2Cn2c(-c3nc4cc(C(=O)N5C[C@H](N)[C@@H]6CC[C@H]5C6)cc(F)c4n3C3CC3)cc3ccc1nc32` [Example 709, (3~{S),5~{R},16~{R})-22-[5-[(1~{S},4~{R},5~ {R})-4-amino-2-azabicyclo[3.2.1]octane-2-carbonyl]-1-cyclopropyl-7-fluoro-benzimidazol-2-yl]-10-chloro-16-methyl-1,9,15,24-tetrazapentacyclo[15.5.2.0^ {3,5}.0^{8,13}.0^{20,23}] tetracosa-8(13),9,11, 17(24),18,20(23),21-heptaen-14-one]: the half-inhibitory concentration (IC50) worked out at 25 nM.

Regarding `COc1cc(C(=O)N2C[C@H](N)[C@@H]3CC[C@H]2C3)cc2nc(-c3cc4ccc5nc4n3CC(F)(F)CCC[C@]3(F)C[C@H]3C(=O)N[C@@H]5C)n(C)c12` [Example 448, (2~{R},5~{S},7~{S})-14-[5-[(1~{S},4~{R},5~{R})-4-amino-2-azabicyclo[3.2.1]octane-2-carbonyl]-7-methoxy-1-methyl-benzimidazol-2-yl]-7,11,11-trifluoro-2-methyl-3,13,19-triazatetracyclo[11.5.2.0^{5,7}.0^{16,20}] icosa-1(19),14,16(20),17-tetraen-4-one], the IC50 was 26 nM.

`COc1cc(C(=O)N2[C@H]3CC[C@@H]2[C@H](N)C3)cc2nc(-c3cc4ccc5nc4n3CCCCCCCC(=O)N3CC4(CC4)CC53)n(C)c12` (some centres unmarked) [Example 134, 16-[5-[(1˜{R},2˜{R},4˜{S})-2-amino-7-azabicyclo[2.2.1]heptane-7-carbonyl]-7-methoxy-1-methyl-benzimidazol-2-yl]spiro[6,15,21-triazatetracyclo[13.5.2.0^{2,6}.0^{18,22}]docosa-1(21),16,18(22),19-tetraene-4,1′-cyclopropane]-7-one]: the IC50 turned out to be 125 nM.

`C[C@H]1NC(=O)[C@@H]2C[C@H]2CCCCCn2c(-c3nc4cc(C(=O)N[C@H]5CNCC[C@@H]5F)c(F)cn4c3C3CC3)cc3ccc1nc32` [Example 580, 3-cyclopropyl-6-fluoro-~ {N}-[(3~{S},4~{S})-4-fluoro-3-piperidyl]-2-[(2~{R},5~{R},7~{R})-2-methyl-4-oxo-3,13,19-triazatetracyclo[11.5.2.0^ {5,7}.0^{16,20}]icosa-1(19),14,16(20),17-tetraen-14-yl]imidazo[1,2-a] pyridine-7-carboxamide]: the IC50 came to 24 nM.

As to `COc1cc(C(=O)N2[C@H]3CC[C@@H]2[C@H](N)C3)cc2nc(-c3cc4ccc5nc4n3C/C=C\CCCCCC(=O)N[C@@H]5C)c(C)n12` [Example 120, (12˜{R})-18-[7-[(1˜{R},2˜{R},4˜{S})-2-amino-7-azabicyclo[2.2.1]heptane-7-carbonyl]-5-methoxy-3-methyl-imidazo[1,2-a]pyridin-2-yl]-12-methyl-1,11,20-triazatricyclo[11.5.2.0^{16,19}]icosa-3,13(20),14,16(19),17-pentaen-10-one], the IC50 stood at 22 nM.

Turning to `COc1cc(C(=O)N2CC[C@@H](OC)[C@@H](N)C2)cc2nc(-c3cc4ccc5nc4n3CCCCCCC3(COC3)C(=O)N[C@@H]5C)n(C)c12` [Example 611, (11~{R})-17-[5-[(3~{S}, 4-{R})-3-amino-4-methoxy-piperidine-1-carbonyl]-7-methoxy-1-methyl-benzimidazol-2-yl]-11-methyl-spiro[1,10,19-triazatricyclo[10.5.2.0^{15,18}]nonadeca-12,14,16,18-tetraene-8,3′-oxetane]-9-one], the 50% inhibitory concentration (IC50) is 85 nM.

Consider `COc1cc(C(=O)N2C[C@H](N)[C@@H]3CC[C@H]2C3)cc2nc(-c3cc4ccc5nc4n3CCCCC[C@]3(F)C[C@H]3C(=O)N[C@@H]5C)n(C)c12` [Example 451, (2~{R},5~{S},7~{S})-14-[5-[(1~{S},4~{R},5~{R})-4-amino-2-azabicyclo[3.2.1]octane-2-carbonyl]-7-methoxy-1-methyl-benzimidazol-2-yl]-7-fluoro-2-methyl-3,13,19-triazatetracyclo[11.5.2.0^{5,7}.0^{16,20}] icosa-1(19),14,16(20),17-tetraen-4-one], for which the IC50 is 19 nM.

As for `COc1cc(C(=O)N2C[C@H](N)CC[C@@H]2C)cc2nc(-c3cc4ccc5nc4n3CCCCCCC(C)(C)C(=O)N[C@@H]5C)n(C)c12` [Example 5, (11~{R})-17-[5-[(2~{S},5~{R})-5-amino-2-methyl-piperidine-1-carbonyl]-7-methoxy-1-methyl-benzimidazol-2-yl]-8,8,11-trimethyl-1,10,19-triazatricyclo[10.5.2.0^{15,18}]nonadeca-12(19),13,15(18),16-tetraen-9-one], the IC50 turned out to be 76 nM.

As for `COc1cc(C(=O)N[C@H]2CNCC[C@@H]2O)cc2nc(-c3cc4ccc5nc4n3CCCCCCC(C)(C)C(=O)N[C@@H]5C)n(C)c12` [Example 244, ~{N}-[(3~{S},4~{S})-4-hydroxy-3-piperidyl]-7-methoxy-1-methyl-2-[(11~{R})-8,8,11-trimethyl-9-oxo-1,10,19-triazatricyclo[10.5.2.0^{15,18}]nonadeca-12(19),13,15(18),16-tetraen-17-yl]benzimidazole-5-carboxamide], the IC50 was 2580 nM.

On to `[2H]C1([2H])CCCC[C@@H]2C[C@H]2C(=O)N[C@H](C)c2ccc3cc(-c4nc5cc(C(=O)N6CC[C@@H](OC)[C@@H](N)C6)cc(F)c5n4C4CC4)n1c3n2` [Example 874, (2~{R},5~{R},7~{R})-14-[5-[(3~{S},4~{R})-3-amino-4-methoxy-piperidine-1-carbonyl]-1-cyclopropyl-7-fluoro-benzimidazol-2-yl]-12,12-dideuterio-2-methyl-3,13,19-triazatetracyclo[11.5.2.0^ {5,7}.0^{16,20}]icosa-1(19), 14,16(20),17-tetraen-4-one], for which the IC50 was 29 nM.

For `C[C@@H]1[C@H](N)CCCN1C(=O)c1cc(F)c2c(c1)nc(-c1cc3ccc4nc3n1CC(F)(F)CCC[C@@H]1C[C@H]1C(=O)N[C@@H]4C)n2[C@@H]1C[C@@H]1F` [Example 747, (2~{R},5~{R},7~{R})-14-[5-[(2~{R},3~{R})-3-amino-2-methyl-piperidine-1-carbonyl]-7-fluoro-1-[(1~{R},2~{S})-2-fluorocyclopropyl]benzimidazol-2-yl]-11,11-difluoro-2-methyl-3,13,19-triazatetracyclo [11.5.2.0^{5,7}.0^{16,20}] icosa-1(19),14,16(20),17-tetraen-4-one], the IC50 stood at 10 nM.

`CO[C@@H]1CCN(C(=O)c2cc(F)c3c(c2)nc(-c2cc4ccc5nc4n2CCCCCC[C@](F)(c2cccc(Cl)n2)C(=O)N[C@@H]5C)n3C2CC2)C[C@@H]1N` [Example 876, (8~{S},11~{R})-17-[5-[(3~{S}, 4~{R})-3-amino-4-methoxy-piperidine-1-carbonyl]-1-cyclopropyl-7-fluoro-benzimidazol-2-yl]-8-(6-chloro-2-pyridyl)-8-fluoro-11-methyl-1,10,19-triazatricyclo [10.5.2.0^{15,18}]nonadeca-12(19),13,15(18), 16-tetraen-9-one]: the IC50 is 122 nM.

On to `COCCn1c(-c2cc3ccc4nc3n2CCCCCc2nccnc2C(=O)N[C@@H]4C)nc2cc(C(=O)N3CC[C@@H](OC)[C@@H](N)C3)cc(F)c21` [Example 435, (2~{R})-17-[5-[(3~{S},4~{R})-3-amino-4-methoxy-piperidine-1-carbonyl]-7-fluoro-1-(2-methoxyethyl)benzimidazol-2-yl]-2-methyl-3,6,9,16,22-pentazatetracyclo[14.5.2.0^{5,10}.0^{19, 23}]tricosa-1(22),5(10),6,8,17,19(23),20-heptaen-4-one], for which the IC50 stood at 394 nM.

As a reminder, the IC50 is the midpoint of a concentration-inhibition curve.
